Target: T1, GR (Homo sapiens, UniProt P04150)
T1 construct: expressed in transfected cells; host or cells: CHO-K1
T1 sequence (P04150 1-777): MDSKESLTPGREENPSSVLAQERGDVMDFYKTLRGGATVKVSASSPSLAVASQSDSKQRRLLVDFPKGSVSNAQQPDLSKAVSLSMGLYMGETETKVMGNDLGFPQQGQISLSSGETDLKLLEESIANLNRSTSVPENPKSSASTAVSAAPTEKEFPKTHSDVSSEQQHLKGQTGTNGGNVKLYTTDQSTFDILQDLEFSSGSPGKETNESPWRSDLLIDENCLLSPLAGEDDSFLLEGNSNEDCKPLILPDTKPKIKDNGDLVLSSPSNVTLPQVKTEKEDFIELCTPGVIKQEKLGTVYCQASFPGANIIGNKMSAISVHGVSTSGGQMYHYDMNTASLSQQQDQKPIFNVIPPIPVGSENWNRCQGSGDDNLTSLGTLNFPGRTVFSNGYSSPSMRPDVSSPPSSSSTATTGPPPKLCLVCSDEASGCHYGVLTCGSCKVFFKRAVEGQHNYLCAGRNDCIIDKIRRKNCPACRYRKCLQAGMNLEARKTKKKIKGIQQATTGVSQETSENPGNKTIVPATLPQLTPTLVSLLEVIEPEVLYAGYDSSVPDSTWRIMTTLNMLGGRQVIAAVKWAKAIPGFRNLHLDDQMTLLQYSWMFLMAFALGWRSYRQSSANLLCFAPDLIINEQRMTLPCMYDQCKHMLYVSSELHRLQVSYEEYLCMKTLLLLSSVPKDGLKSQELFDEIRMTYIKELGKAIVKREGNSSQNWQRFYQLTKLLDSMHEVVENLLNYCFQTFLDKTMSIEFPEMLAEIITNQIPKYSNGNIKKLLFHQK
Assay: In Vitro GR Luciferase Reporter Assay (antagonist mode, CHO-K1-GR-MMTV-Luc reporter cells)
Type: cell-based
Details: antagonist mode, 10 nM Dexamethasone
Procedure, shortened: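 CHO-K1-GR-MMTV-Luc cells in phenol red-free DMEM with 10% CSS, stimulated with 10 nM dexamethasone (final) and treated with 8-point 1:5 compound dilutions for about 18-24 h at 37° C. Luciferase measured by OneGlo luminescence; IC50 derived for inhibition of GR activity.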

| IC50 | SMILES |
| --- | --- |
| ≤ 100 nM | Cn1cnc(S(=O)(=O)N(CC2CC2)[C@H]2CCC3=Cc4c(cnn4-c4ccc(F)cc4)C[C@]3(C(=O)c3cc(F)ccn3)C2)n1 [Example 409, N-(cyclopropylmethyl)-N-((4aS,6S)-1-(4-fluorophenyl)-4a-(4-fluoropicolinoyl)-4,4a,5,6,7,8-hexahydro-1H-benzo[f]indazol-6-yl)-1-methyl-1H-1,2,4-triazole-3-sulfonamide] |
| ≤ 100 nM | Cn1cnc(S(=O)(=O)N(CC2CC2)[C@H]2CCC3=Cc4c(cnn4-c4ccc(F)cc4)C[C@]3(C(=O)c3cc(Cl)ccn3)C2)n1 [Example 410, N-((4aS,6S)-4a-(4-chloropicolinoyl)-1-(4-fluorophenyl)-4,4a,5,6,7,8-hexahydro-1H-benzo[f]indazol-6-yl)-N-(cyclopropylmethyl)-1-methyl-1H-1,2,4-triazole-3-sulfonamide] |

Second part, the compound before the results:

| SMILES | IC50 |
| --- | --- |
| Cn1cc(S(=O)(=O)N(C2CC(F)(F)C2)[C@H]2CCC3=Cc4c(cnn4-c4ccc(F)cc4)C[C@]3(C(=O)c3ncc(C(F)(F)F)s3)C2)cn1 [Example 406, N-(3,3-difluorocyclobutyl)-N-((4aS,6S)-1-(4-fluorophenyl)-4a-(5-(trifluoromethyl)thiazole-2-carbonyl)-4,4a,5,6,7,8-hexahydro-1H-benzo[f]indazol-6-yl)-1-methyl-1H-pyrazole-4-sulfonamide] | ≤ 100 nM |
| O=C(c1cc(C(F)(F)F)ccn1)[C@]12Cc3cnn(-c4ccc(F)cc4)c3C=C1CC[C@H](N(CC(F)F)S(=O)(=O)c1ccc(F)cc1)C2 [Example 407, N-(2,2-difluoroethyl)-4-fluoro-N-((4aS,6S)-1-(4-fluorophenyl)-4a-(4-(trifluoromethyl)picolinoyl)-4,4a,5,6,7,8-hexahydro-1H-benzo[f]indazol-6-yl)benzenesulfonamide] | ≤ 100 nM |
| Cn1ccc(S(=O)(=O)N([C@H]2CCC3=Cc4c(cnn4-c4ccc(F)cc4)C[C@]3(C(=O)c3ncc(C(F)(F)F)s3)C2)[C@H]2C[C@@H](C#N)C2)n1 [Example 408, N-((1s,3R)-3-cyanocyclobutyl)-N-((4aS,6S)-1-(4-fluorophenyl)-4a-(5-(trifluoromethyl)thiazole-2-carbonyl)-4,4a,5,6,7,8-hexahydro-1H-benzo[f]indazol-6-yl)-1-methyl-1H-pyrazole-3-sulfonamide] | ≤ 100 nM |
| Cn1cc(S(=O)(=O)N(C2CC(F)(F)C2)[C@H]2CCC3=Cc4c(cnn4-c4ccc(F)cc4)C[C@]3(C(=O)c3cc(C(F)(F)F)ccn3)C2)cn1 [Example 411, N-(3,3-difluorocyclobutyl)-N-((4aS,6S)-1-(4-fluorophenyl)-4a-(4-(trifluoromethyl)picolinoyl)-4,4a,5,6,7,8-hexahydro-1H-benzo[f]indazol-6-yl)-1-methyl-1H-pyrazole-4-sulfonamide] | ≤ 100 nM |
